Consider 13 compounds from PubChem BioAssay (NCI).

Some test systems named below: BT-549 breast; HOP-62 NSCLC; IGROV1 ovarian; KM12 colon; MDA-MB-435; OVCAR-4 ovarian; PC-3 prostate; RXF 393 renal; SN12C renal; SR leukemia; TK-10 renal.
Holding throughout (experiment): DTP human tumour cell line panel, 48 h

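Growth conditions: 96-well plates. Treatment: test compound, 48 hours, 5 concentrations. Analysis: linear interpolation between bracketing concentrations; unreached endpoints set to highest concentration. Definition used: TGI = concentration required for complete inhibition of growth.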

For the compound `O=[N+]([O-])/C(C(Cl)=C(Cl)Cl)=C(/Sc1ccccc1)N1CCOCC1`, the TGI in the assay on BT-549 breast was 15 µM; in the assay on HOP-62 NSCLC it was 33.5 µM; in the assay with IGROV1 ovarian, 11.1 µM; in the assay on KM12 colon, 32.7 µM; in the assay with MDA-MB-435, 9.2 µM; with OVCAR-4 ovarian, 28.4 µM. For the same compound, the TGI is 14.8 µM in the assay on PC-3 prostate; 3.7 µM in the assay on RXF 393 renal; 19.3 µM in the assay on SN12C renal; 5.62 µM with SR leukemia; 18.3 µM with TK-10 renal.
In the case of `C#CCSc1cnc2ccccc2c1Sc1c[nH]c2ccccc2c1=O`, the TGI was above 100 µM with BT-549 breast; above 100 µM in the assay on HOP-62 NSCLC; 20 µM with IGROV1 ovarian; 65 µM in the assay on KM12 colon; above 100 µM in the assay on MDA-MB-435; above 100 µM with OVCAR-4 ovarian. Besides, the TGI with PC-3 prostate is above 100 µM; in the assay on RXF 393 renal, 36.1 µM; in the assay on SN12C renal it was 40.7 µM; in the assay on SR leukemia, above 100 µM; in the assay with TK-10 renal it was above 100 µM.
Regarding `c1ccc(-c2cc(-c3cc(-c4ccccc4)n[nH]3)[nH]n2)cc1`, the TGI in the assay with BT-549 breast, in the assay with HOP-62 NSCLC, in the assay on IGROV1 ovarian, with KM12 colon, with MDA-MB-435 and in the assay with OVCAR-4 ovarian was above 100 µM throughout. For the same compound, the TGI with PC-3 prostate, in the assay with RXF 393 renal, with SN12C renal, with SR leukemia and with TK-10 renal was above 100 µM throughout.
In the case of `C/C(=N/NC(=S)N(Cc1ccccn1)Cc1ccccn1)c1cnccn1`, the TGI in the assay with BT-549 breast was 12.7 µM; with HOP-62 NSCLC, 14.6 µM; in the assay with IGROV1 ovarian, 2.78 µM; in the assay on KM12 colon it was 19.7 µM; in the assay with MDA-MB-435, 35.6 µM; with OVCAR-4 ovarian, 8.14 µM. Moreover, the TGI in the assay with PC-3 prostate is 26 µM; in the assay with RXF 393 renal, 17.4 µM; in the assay on SN12C renal it was 12.9 µM; with SR leukemia, above 55.2 µM; in the assay on TK-10 renal, 19.2 µM.
Consider `COC(=O)c1ccc(NCC2=CC(=O)c3ccccc3C2=O)cc1`, for which the TGI came out at 42.2 µM with BT-549 breast; 34.7 µM in the assay on HOP-62 NSCLC; 30.2 µM in the assay on IGROV1 ovarian; 33 µM in the assay on KM12 colon; 30.3 µM with MDA-MB-435; 29.1 µM in the assay on OVCAR-4 ovarian. Also, the concentration for total growth inhibition (TGI) with PC-3 prostate is 27.8 µM; with RXF 393 renal, above 61.7 µM; with SN12C renal it was 59.3 µM; in the assay on SR leukemia, 39.4 µM; in the assay with TK-10 renal it was 37.1 µM.
Consider `O=[N+]([O-])C(=C/C1CCCCC1)/C(=C\C1CCCCC1)[N+](=O)[O-]`, for which the total growth inhibition concentration (TGI) in the assay with BT-549 breast came to 12.5 µM; in the assay on HOP-62 NSCLC it was 19.1 µM; in the assay on IGROV1 ovarian, 20.6 µM; in the assay with KM12 colon, 29.8 µM; in the assay with MDA-MB-435, 20.4 µM; with OVCAR-4 ovarian it was 40.1 µM. Also, the TGI was 34.4 µM with PC-3 prostate; 3.93 µM in the assay on RXF 393 renal; 11.5 µM in the assay on SN12C renal; 6.89 µM with SR leukemia; 16.8 µM in the assay with TK-10 renal.
Consider `OCCCN(CCc1ccc(Cl)c(Cl)c1)CCN1CCCC1`, for which the TGI in the assay with BT-549 breast was above 100 µM; in the assay on HOP-62 NSCLC, above 100 µM; in the assay on IGROV1 ovarian, above 100 µM; with KM12 colon, above 100 µM; with MDA-MB-435, 53.4 µM; in the assay on OVCAR-4 ovarian, above 100 µM. For the same compound, the TGI in the assay on PC-3 prostate, in the assay with RXF 393 renal, in the assay on SN12C renal, in the assay with SR leukemia and in the assay on TK-10 renal was above 100 µM in each case.
Regarding `COc1ccc(CN=C2Nc3ccncc3S(=O)(=O)N2c2ccccc2)cc1`, the TGI with BT-549 breast is 89.4 µM; with HOP-62 NSCLC, above 100 µM; with IGROV1 ovarian, above 100 µM; in the assay with KM12 colon, above 100 µM; with MDA-MB-435, 80.7 µM; in the assay with OVCAR-4 ovarian, above 100 µM. Moreover, the TGI in the assay with PC-3 prostate is above 100 µM; in the assay on RXF 393 renal, above 100 µM; in the assay with SN12C renal, above 100 µM; with SR leukemia, 73.3 µM; in the assay on TK-10 renal, 59.9 µM.
For `CCOC(=O)c1cc2cc(CSc3ccccc3)ccc2oc1=O`, the TGI in the assay on BT-549 breast, in the assay with HOP-62 NSCLC, in the assay with IGROV1 ovarian, with KM12 colon, with MDA-MB-435 and with OVCAR-4 ovarian was above 100 µM in each case. Besides, the TGI with PC-3 prostate, with RXF 393 renal, in the assay on SN12C renal, with SR leukemia and with TK-10 renal was above 100 µM each time.
On to `C=C(Br)C(Cl)(CBr)CCC(Br)C(C)(C)Cl` (stereo not drawn), for which the TGI in the assay on BT-549 breast, in the assay on HOP-62 NSCLC, in the assay with IGROV1 ovarian, in the assay on KM12 colon, in the assay with MDA-MB-435 and with OVCAR-4 ovarian was above 10 µM throughout. Moreover, the TGI in the assay with PC-3 prostate, with RXF 393 renal, with SN12C renal, in the assay with SR leukemia and with TK-10 renal was above 10 µM throughout.
As for `O=C(c1ccco1)N1CCN(C(=O)c2ccco2)C1=S`, the TGI in the assay on BT-549 breast came out at 33.9 µM; in the assay with HOP-62 NSCLC it was 33.1 µM; with IGROV1 ovarian, 27.4 µM; with KM12 colon, 15 µM; with MDA-MB-435, 14.1 µM; in the assay on OVCAR-4 ovarian, 35.2 µM. Also, the TGI stood at 17.5 µM in the assay on PC-3 prostate; 12 µM with RXF 393 renal; 16.4 µM with SN12C renal; 12.1 µM in the assay with SR leukemia; 19.8 µM with TK-10 renal.
Consider `CCCCCC(/C=N/NC(N)=S)C(O)(C(F)(F)F)C(F)(F)F` (stereo not drawn), for which the TGI in the assay on BT-549 breast, in the assay on HOP-62 NSCLC, with IGROV1 ovarian, with KM12 colon, in the assay with MDA-MB-435 and in the assay with OVCAR-4 ovarian was above 10 µM in each case. Further, the TGI in the assay with PC-3 prostate, with RXF 393 renal, with SN12C renal, in the assay with SR leukemia and in the assay with TK-10 renal was above 10 µM each time.
`C/C=C/[C@@H]1O[C@H](CC#C[Si](C)(C)C)[C@@]2(C=O)C(C)=CC[C@H](C(C)C)[C@@H]12`: the TGI was found to be 49.7 µM in the assay on BT-549 breast; 82.7 µM with HOP-62 NSCLC; 10.7 µM in the assay with IGROV1 ovarian; 40.8 µM with KM12 colon; 42.5 µM with MDA-MB-435; 51.7 µM with OVCAR-4 ovarian. The TGI in the assay with PC-3 prostate is 33.8 µM; with RXF 393 renal, 36.8 µM; in the assay with SN12C renal, 34.8 µM; in the assay on SR leukemia, 56.3 µM; in the assay on TK-10 renal, 31.5 µM.
